Consider 18 compounds from US7601686B2, “Hepatitis C virus inhibitors” (Bristol-Myers Squibb Company, priority 2005, dated 2009).

Assay [1] deals with T1, HCV NS3/4A protease complex, BMS strain (UniProt P27958, species not given/STRAIN_BMS).
T1 construct: DNA encoding the recombinant HCV NS3/4A protease complex (amino acids 1027 to 1711) for these strains [H77 and J4L6S]; fused on or other part: For the H77 and J4L6S constructs, a three-lysine solubilising tail at the NS4A C-terminus and a Ni-NTA-purifiable tag from pET21b
T1 sequence (P27958 1027-1657, stated change not applied, one chain of several): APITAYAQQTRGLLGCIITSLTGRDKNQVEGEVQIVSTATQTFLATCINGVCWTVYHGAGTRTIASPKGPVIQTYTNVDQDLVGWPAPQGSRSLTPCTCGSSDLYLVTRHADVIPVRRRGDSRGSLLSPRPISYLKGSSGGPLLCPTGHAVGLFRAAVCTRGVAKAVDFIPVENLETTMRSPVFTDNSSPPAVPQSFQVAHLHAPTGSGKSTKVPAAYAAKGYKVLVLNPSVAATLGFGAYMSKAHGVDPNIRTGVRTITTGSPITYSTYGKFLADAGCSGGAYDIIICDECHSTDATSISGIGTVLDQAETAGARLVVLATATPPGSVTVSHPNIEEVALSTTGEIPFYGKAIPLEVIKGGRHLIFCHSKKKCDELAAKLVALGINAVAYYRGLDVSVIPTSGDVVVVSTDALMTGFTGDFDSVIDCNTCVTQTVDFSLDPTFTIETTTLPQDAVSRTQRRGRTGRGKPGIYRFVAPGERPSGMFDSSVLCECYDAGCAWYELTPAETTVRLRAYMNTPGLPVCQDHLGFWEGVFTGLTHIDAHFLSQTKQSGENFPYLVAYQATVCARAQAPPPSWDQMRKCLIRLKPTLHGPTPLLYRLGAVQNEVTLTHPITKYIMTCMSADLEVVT
Briefly: FRET peptide assay to monitor HCV NS3/4A proteolytic activity (BMS strain). In kind it is biochemical, Hepatitis C virus (genotype 1a). An excerpt:
Generation of Recombinant HCV NS3/4A Protease Complex
HCV NS3 protease complexes, derived from the BMS strain, H77 strain or J4L6S strain, were generated, as described below. These purified recombinant proteins were generated for use in a homogeneous assay (see below) to provide an indication of how effective compounds of the present disclosure would be in inhibiting HCV NS3 proteolytic activity.
Serum from an HCV-infected patient was obtained from Dr. T. Wright, San Francisco Hospital. An engineered full-length cDNA (compliment deoxyribonucleic acid) template of the HCV genome (BMS strain) was constructed from DNA fragments obtained by reverse transcription-PCR (RT-PCR) of serum RNA (ribonucleic acid) and using primers selected on the basis of homology between other genotype 1a strains. From the determination of the entire genome sequence, a genotype 1a was assigned to the HCV isolate according to the classification of Simmonds et al. (See P Simmonds, K A Rose, S Graham, S W Chan, F McOmish, B C Dow, E A Follett, P L Yap and H Marsden, J. Clin. Microbiol., 31(6), 1493-1503 (1993)). […] The infectious clones, H77 (1a genotype) and J4L6S (1b genotype) were obtained from R. Purcell (NIH) and the sequences are published in Genbank (AAB67036, see Yanagi, M., Purcell, R. H., Emerson, S. U. and Bukh, J. Proc. Natl. Acad. Sci. U.S.A. 94(16), 8738-8743 (1997); AF054247, see Yanagi, M., St Claire, M., Shapiro, M., Emerson, S. U., Purcell, R. H. and Bukh, J, Virology 244 (1), 161-172. (1998)).
The H77 and J4L6S strains were used for production of recombinant NS3/4A protease complexes. DNA encoding the recombinant HCV NS3/4A protease complex (amino acids 1027 to 1711) for these strains were manipulated as described by P. Gallinari et al. (see Gallinari P, Paolini C, Brennan D, Nardi C, Steinkuhler C, De Francesco R. Biochemistry. 38(17):5620-32, (1999)). Briefly, a three-lysine solubilizing tail was added at the 3′-end of the NS4A coding region. The cysteine in the P1 position of the NS4A-NS4B cleavage site (amino acid 1711) was changed to a glycine to avoid the proteolytic cleavage of the lysine tag. Furthermore, a cysteine to serine mutation was introduced by PCR at amino acid position 1454 to prevent the autolytic cleavage in the NS3 helicase domain. The variant DNA fragment was cloned in the pET21b bacterial expression vector (Novagen) and the NS3/4A complex was expressed in Escherichia coli strain BL21 (DE3) (Invitrogen) following the protocol described by P. Gallinari et al. (see Gallinari P, Brennan D, Nardi C, Brunetti M, Tomei L, Steinkuhler C, De Francesco R., J. Virol. 72(8):6758-69 (1998)) with modifications. Briefly, the NS3/4A protease complex expression was induced with 0.5 millimolar (mM) Isopropyl β-D-1-thiogalactopyranoside (IPTG) for 22 hours (h) at 20° C. A typical fermentation (1 Liter (L)) yielded approximately 10 grams (g) of wet cell paste. The cells were resuspended in lysis buffer (10 mL/g) consisting of 25 mM N-(2-Hydroxyethyl)piperazine-N′-(2-Ethane Sulfonic acid) (HEPES), pH 7.5, 20% glycerol, 500 mM Sodium Chloride (NaCl), 0.5% Triton X-100, 1 microgram/milliliter (“μg/mL”) lysozyme, 5 mM Magnesium Chloride (MgCl2), 1 μg/mL DnaseI, 5 mM β-Mercaptoethanol (βME), Protease inhibitor—Ethylenediamine Tetraacetic acid (EDTA) free (Roche), homogenized and incubated for 20 minutes (min) at 4° C. The homogenate was sonicated and clarified by ultra-centrifugation at 235000 g for 1 h at 4° C. Imidazole was added to the supernatant to a final concentration of 15 mM and the pH adjusted to 8.0. The crude protein extract was loaded on a Nickel—Nitrilotriacetic acid (Ni-NTA) column pre-equilibrated with buffer B (25 mM HEPES, pH 8.0, 20% glycerol, 500 mM NaCl, 0.5% Triton X-100, 15 mM imidazole, 5 mM βME). The sample was loaded at a flow rate of 1 mL/min. The column was washed with 15 column volumes of buffer C (same as buffer B except with 0.2% Triton X-100). […]

The test system of assay [2] is HCV replicon in HUH-7 cells. Nature of the assay: HCV replicon FRET assay. The settings on record: Hepatitis C virus; HCV replicon cell assay, HUH-7; read-out: EC50 Range. In kind it is cell-based, Hepatitis C virus (strain 1b). The source says: Generation of HCV Replicon
An HCV replicon whole cell system was established as described by Lohmann V, Korner F, Koch J, Herian U, Theilmann L, Bartenschlager R., Science 285(5424):110-3 (1999). This system enabled us to evaluate the effects of our HCV Protease compounds on HCV RNA replication. Briefly, using the HCV strain 1b sequence described in the Lohmann paper (Assession number:AJ238799), an HCV cDNA was synthesized by Operon Technologies, Inc. (Alameda, Calif.), and the full-length replicon was then assembled in plasmid pGem9zf(+) (Promega, Madison, Wis.) using standard molecular biology techniques. The replicon consists of (i) the HCV 5′ UTR fused to the first 12 amino acids of the capsid protein, (ii) the neomycin phosphotransferase gene (neo), (iii) the IRES from encephalomyocarditis virus (EMCV), and (iv) HCV NS3 to NS5B genes and the HCV 3′ UTR. Plasmid DNAs were linearized with ScaI and RNA transcripts were synthesized in vitro using the T7 MegaScript transcription kit (Ambion, Austin, Tex.) according to manufacturer's directions. In vitro transcripts of the cDNA were transfected into the human hepatoma cell line, HUH-7. […] Resulting cell lines were characterized for positive and negative strand RNA production and protein production over time.
The HCV replicon FRET assay was developed to monitor the inhibitory effects of compounds described in the disclosure on HCV viral replication. HUH-7 cells, constitutively expressing the HCV replicon, were grown in Dulbecco's Modified Eagle Media (DMEM) (Gibco-BRL) containing 10% Fetal calf serum (FCS) (Sigma) and 1 mg/mL G418 (Gibco-BRL). Cells were seeded the night before (1.5×10^4 cells/well) in 96-well tissue-culture sterile plates. Compound and no compound controls were prepared in DMEM containing 4% FCS, 1:100 Penicillin/Streptomysin (Gibco-BRL), 1:100 L-glutamine and 5% DMSO in the dilution plate (0.5% DMSO final concentration in the assay). Compound/DMSO mixes were added to the cells and incubated for 4 days at 37° C. After 4 days, cells were first assessed for cytotoxicity using alamar Blue (Trek Diagnotstic Systems) for a CC50 reading. The toxicity of compound (CC50) was determined by adding 1/10th volume of alamar Blue to the media incubating the cells. After 4 h, the fluorescence signal from each well was read, with an excitation wavelength at 530 nm and an emission wavelength of 580 nm, using the Cytofluor Series 4000 (Perspective Biosystems). Plates were then rinsed thoroughly with Phosphate-Buffered Saline (PBS) (3 times 150 μl).
A general note: In antiviral work, replicon cells carry a viral genome segment that copies itself.

Where [3] appears, read: NS3/4A BMS strain, enzyme assay; read-out: IC 50 Range.
The mark [4] stands for this setting: read-out: IC 50 Range; NS3/4A BMS strain, enzyme assay.

Read-outs that look alike come from different tables or passages of the source. Where only a bound is given, the exact number is not on record here.

Broadly, the EC50 is the concentration needed to bring the measured effect to its halfway point. Turning to `C=CC1CC1(NC(=O)[C@@H]1C[C@@H](NC(=O)c2ccncc2)CN1C(=O)[C@@H](NC(=O)CC1CC1)C(C)(C)C)C(=O)NS(=O)(=O)C1CC1` (stereo partly shown) [Compound 14], in assay [1] (setting [3]), the IC50 was in the range of 150 to 15000 nM. Moreover, the EC50 in assay [2] was above 15 µM.

As to `C=CC1CC1(NC(=O)[C@@H]1C[C@@H](NC(=O)c2cnc3c(c(C)nn3C)c2Cl)CN1C(=O)[C@@H](NC(=O)CC1CC1)C(C)(C)C)C(=O)NS(=O)(=O)C1CC1` (stereo partly shown) [Compound 22], in assay [1] (setting [3]), the IC50 was below 150 nM. The concentration giving a half-maximal response (EC50) in assay [2] was above 15 µM. `C=CC1CC1(NC(=O)[C@@H]1C[C@@H](NC(=O)n2c(=O)oc3ccccc32)CN1C(=O)[C@@H](NC(=O)CC1CC1)C(C)(C)C)C(=O)NS(=O)(=O)C1CC1` (stereo partly shown) [Compound 53]: in assay [1] (setting [4]), the IC50 was below 150 nM. The EC50 in assay [2] was above 15 µM.

Take `C=CC1CC1(NC(=O)[C@@H]1C[C@@H](NC(=O)c2sc3ccccc3c2Cl)CN1C(=O)[C@@H](NC(=O)CC1CC1)C(C)(C)C)C(=O)NS(=O)(=O)C1CC1` (single isomer, unassigned) [Compound 3]: the IC50 in assay [1] (setting [3]) was below 150 nM. In addition, in assay [2], the EC50 was in the range of 0.15 to 15 µM. As for `C=CC1CC1(NC(=O)[C@@H]1C[C@@H](NC(=O)c2ccncc2)CN1C(=O)[C@@H](NC(=O)CC1CC1)C(C)(C)C)C(=O)NS(=O)(=O)C1CC1` (stereo partly shown) [Compound 15], the IC50 in assay [1] (setting [3]) fell in the range of 150 to 15000 nM.

Regarding `C=CC1CC1(NC(=O)[C@@H]1C[C@@H](NC(=O)c2ccc3ccccc3n2)CN1C(=O)[C@@H](NC(=O)CC1CC1)C(C)(C)C)C(=O)NS(=O)(=O)C1CC1` (stereo partly shown) [Compound 25], the IC50 in assay [1] (setting [3]) is below 150 nM. In assay [2], the EC50 lay in the range of 0.15 to 15 µM. As to `C=CC1CC1(NC(=O)[C@@H]1C[C@@H](NC(=S)Nc2cccc3ccccc23)CN1C(=O)[C@@H](NC(=O)OC(C)(C)C)C(C)(C)C)C(=O)NS(=O)(=O)C1CC1` (stereo partly shown) [Compound 46], the IC50 in assay [1] (setting [4]) was in the range of 150 to 15000 nM. Regarding `C=CC1CC1(NC(=O)[C@@H]1C[C@@H](NC(=O)c2cc3ccccc3n2C)CN1C(=O)[C@@H](NC(=O)CC1CC1)C(C)(C)C)C(=O)NS(=O)(=O)C1CC1` (stereo partly shown) [Compound 26], in assay [1] (setting [3]), the IC50 was below 150 nM. For the same compound, the EC50 in assay [2] lay in the range of 0.15 to 15 µM.

Take `C=CC1CC1(NC(=O)[C@@H]1C[C@@H](NC(=O)c2c(-c3ccc(Cl)cc3)cn3ccccc23)CN1C(=O)[C@@H](NC(=O)CC1CC1)C(C)(C)C)C(=O)NS(=O)(=O)C1CC1` (stereo partly shown) [Compound 21]: the IC50 in assay [1] (setting [3]) was below 150 nM. Further, the EC50 in assay [2] lay within 0.15 to 15 µM.

In the case of `C=CC1CC1(NC(=O)[C@@H]1C[C@@H](NC(=O)c2ccnc3ccccc23)CN1C(=O)[C@@H](NC(=O)CC1CC1)C(C)(C)C)C(=O)NS(=O)(=O)C1CC1` (stereo partly shown) [Compound 11], the IC50 in assay [1] (setting [3]) is 150 to 15000 nM.

In the case of `C=CC1CC1(NC(=O)[C@@H]1C[C@@H](NC(=O)c2sc3ccccc3c2Cl)CN1C(=O)[C@@H](NC(=O)CC1CC1)C(C)(C)C)C(=O)O` (single isomer, unassigned) [Compound 1, 1-({4-[(3-Chloro-benzo[b]thiophene-2-carbonyl)-amino]-1-[2-(2-cyclopropyl-acetylamino)-3,3-dimethyl-butyryl]-pyrrolidine-2-carbonyl}-amino)-2-vinyl-cyclopropanecarboxylic acid], the IC50 in assay [1] (setting [3]) lay within 150 to 15000 nM. For the compound `C=CC1CC1(NC(=O)[C@@H]1C[C@@H](NC(=O)c2c(OC)cccc2OC)CN1C(=O)[C@@H](NC(=O)CC1CC1)C(C)(C)C)C(=O)NS(=O)(=O)C1CC1` (stereo partly shown) [Compound 36], in assay [1] (setting [3]), the IC50 is 150 to 15000 nM. As to `C=CC1CC1(NC(=O)[C@@H]1C[C@@H](NC(=O)c2sc3ccccc3c2Cl)CN1C(=O)[C@@H](NC(=O)CC1CC1)C(C)(C)C)C(=O)O` (single isomer, unassigned) [Compound 2, 1-({4-[(3-Chloro-benzo[b]thiophene-2-carbonyl)-amino]-1-[2-(2-cyclopropyl-acetylamino)-3,3-dimethyl-butyryl]-pyrrolidine-2-carbonyl}-amino)-2-vinyl-cyclopropanecarboxylic acid], the IC50 in assay [1] (setting [3]) was above 15000 nM. Consider `C=CC1CC1(NC(=O)[C@@H]1C[C@@H](N2CCN(Cc3ccccc3)CC2)CN1C(=O)[C@@H](NC(=O)OC)C(C)(C)C)C(=O)NS(=O)(=O)C1CC1` (stereo partly shown) [Compound 56], for which the IC50 in assay [1] (setting [3]) was above 15000 nM. For `C=CC1CC1(NC(=O)[C@@H]1C[C@@H](NC(=O)c2cnc(N3CCCCC3)nc2-c2ccccc2)CN1C(=O)[C@@H](NC(=O)CC1CC1)C(C)(C)C)C(=O)NS(=O)(=O)C1CC1` (stereo partly shown) [Compound 23], in assay [1] (setting [3]), the IC50 was 150 to 15000 nM.

Turning to `C=CC1CC1(NC(=O)[C@@H]1C[C@@H](NC(=O)N2CCc3ccccc3C2)CN1C(=O)[C@@H](NC(=O)CC1CC1)C(C)(C)C)C(=O)NS(=O)(=O)C1CC1` (stereo partly shown) [Compound 54], the IC50 in assay [1] (setting [4]) was in the range of 150 to 15000 nM. Consider `C=CC1CC1(NC(=O)[C@@H]1C[C@@H](N2Cc3ccccc3C2)CN1C(=O)[C@@H](NC(=O)C1CC1)C(C)(C)C)C(=O)NS(=O)(=O)C1CC1` (stereo partly shown) [Compound 57], for which, in assay [1] (setting [3]), the IC50 is 150 to 15000 nM.

Turning to `C=CC1CC1(NC(=O)[C@@H]1C[C@@H](N(C)C(=O)c2cc(-c3ccccc3)nc3ccccc23)CN1C(=O)[C@@H](NC(=O)OC(C)(C)C)C(C)(C)C)C(=O)NS(=O)(=O)C1CC1` (stereo partly shown) [Compound 42], the IC50 in assay [1] (setting [3]) is 150 to 15000 nM.
